Measurements from ChEMBL document CHEMBL5113448, “Synthesis and biological evaluation of 4H-benzo[e][1,3]oxazin-4-ones analogues of TGX-221 as inhibitors of PI3Kβ” (Bioorg Med Chem, 2022).

biological target: T1, Phosphatidylinositol 4,5-bisphosphate 3-kinase catalytic subunit delta isoform (Homo sapiens) (UniProt O00329); assay: Inhibition of PI3Kdelta (unknown origin) at 10 uM relative to control
T1 sequence (whole entry): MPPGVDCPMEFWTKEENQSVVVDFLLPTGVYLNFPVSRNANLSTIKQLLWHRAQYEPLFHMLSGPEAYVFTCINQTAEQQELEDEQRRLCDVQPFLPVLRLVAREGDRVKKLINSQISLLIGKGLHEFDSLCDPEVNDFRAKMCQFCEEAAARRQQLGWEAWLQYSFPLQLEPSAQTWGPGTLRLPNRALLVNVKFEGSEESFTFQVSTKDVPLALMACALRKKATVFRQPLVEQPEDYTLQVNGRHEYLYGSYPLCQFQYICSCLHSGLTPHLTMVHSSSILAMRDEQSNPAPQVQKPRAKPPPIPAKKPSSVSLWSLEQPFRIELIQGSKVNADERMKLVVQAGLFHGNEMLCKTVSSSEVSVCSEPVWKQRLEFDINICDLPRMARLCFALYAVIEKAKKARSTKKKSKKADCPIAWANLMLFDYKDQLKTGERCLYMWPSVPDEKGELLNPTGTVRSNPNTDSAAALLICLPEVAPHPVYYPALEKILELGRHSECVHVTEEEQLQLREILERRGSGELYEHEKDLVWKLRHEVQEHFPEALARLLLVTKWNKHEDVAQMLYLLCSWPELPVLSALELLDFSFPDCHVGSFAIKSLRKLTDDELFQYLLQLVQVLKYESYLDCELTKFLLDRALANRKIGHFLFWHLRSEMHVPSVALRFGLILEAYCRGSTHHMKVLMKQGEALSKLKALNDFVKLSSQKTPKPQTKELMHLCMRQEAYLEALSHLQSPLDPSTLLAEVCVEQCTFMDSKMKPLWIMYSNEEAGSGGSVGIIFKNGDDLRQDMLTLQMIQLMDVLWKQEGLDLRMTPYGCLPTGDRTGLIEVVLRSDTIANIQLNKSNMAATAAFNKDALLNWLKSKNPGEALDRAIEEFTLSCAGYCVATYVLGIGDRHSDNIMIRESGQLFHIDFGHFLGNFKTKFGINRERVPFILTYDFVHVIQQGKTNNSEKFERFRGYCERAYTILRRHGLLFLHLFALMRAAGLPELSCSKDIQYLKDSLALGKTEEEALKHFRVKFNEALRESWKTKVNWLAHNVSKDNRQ

SMILES	inhibition [%]
Cc1cc(C(C)Nc2ccccc2)c2oc(N3CCOCC3)nc(=O)c2c1 (stereo unspecified)	87

biological target: DNA-dependent protein kinase catalytic subunit (Homo sapiens, UniProt P78527); assay: Inhibition of DNA-PK (unknown origin) in the presence of ATP
Sequence (P78527 whole entry): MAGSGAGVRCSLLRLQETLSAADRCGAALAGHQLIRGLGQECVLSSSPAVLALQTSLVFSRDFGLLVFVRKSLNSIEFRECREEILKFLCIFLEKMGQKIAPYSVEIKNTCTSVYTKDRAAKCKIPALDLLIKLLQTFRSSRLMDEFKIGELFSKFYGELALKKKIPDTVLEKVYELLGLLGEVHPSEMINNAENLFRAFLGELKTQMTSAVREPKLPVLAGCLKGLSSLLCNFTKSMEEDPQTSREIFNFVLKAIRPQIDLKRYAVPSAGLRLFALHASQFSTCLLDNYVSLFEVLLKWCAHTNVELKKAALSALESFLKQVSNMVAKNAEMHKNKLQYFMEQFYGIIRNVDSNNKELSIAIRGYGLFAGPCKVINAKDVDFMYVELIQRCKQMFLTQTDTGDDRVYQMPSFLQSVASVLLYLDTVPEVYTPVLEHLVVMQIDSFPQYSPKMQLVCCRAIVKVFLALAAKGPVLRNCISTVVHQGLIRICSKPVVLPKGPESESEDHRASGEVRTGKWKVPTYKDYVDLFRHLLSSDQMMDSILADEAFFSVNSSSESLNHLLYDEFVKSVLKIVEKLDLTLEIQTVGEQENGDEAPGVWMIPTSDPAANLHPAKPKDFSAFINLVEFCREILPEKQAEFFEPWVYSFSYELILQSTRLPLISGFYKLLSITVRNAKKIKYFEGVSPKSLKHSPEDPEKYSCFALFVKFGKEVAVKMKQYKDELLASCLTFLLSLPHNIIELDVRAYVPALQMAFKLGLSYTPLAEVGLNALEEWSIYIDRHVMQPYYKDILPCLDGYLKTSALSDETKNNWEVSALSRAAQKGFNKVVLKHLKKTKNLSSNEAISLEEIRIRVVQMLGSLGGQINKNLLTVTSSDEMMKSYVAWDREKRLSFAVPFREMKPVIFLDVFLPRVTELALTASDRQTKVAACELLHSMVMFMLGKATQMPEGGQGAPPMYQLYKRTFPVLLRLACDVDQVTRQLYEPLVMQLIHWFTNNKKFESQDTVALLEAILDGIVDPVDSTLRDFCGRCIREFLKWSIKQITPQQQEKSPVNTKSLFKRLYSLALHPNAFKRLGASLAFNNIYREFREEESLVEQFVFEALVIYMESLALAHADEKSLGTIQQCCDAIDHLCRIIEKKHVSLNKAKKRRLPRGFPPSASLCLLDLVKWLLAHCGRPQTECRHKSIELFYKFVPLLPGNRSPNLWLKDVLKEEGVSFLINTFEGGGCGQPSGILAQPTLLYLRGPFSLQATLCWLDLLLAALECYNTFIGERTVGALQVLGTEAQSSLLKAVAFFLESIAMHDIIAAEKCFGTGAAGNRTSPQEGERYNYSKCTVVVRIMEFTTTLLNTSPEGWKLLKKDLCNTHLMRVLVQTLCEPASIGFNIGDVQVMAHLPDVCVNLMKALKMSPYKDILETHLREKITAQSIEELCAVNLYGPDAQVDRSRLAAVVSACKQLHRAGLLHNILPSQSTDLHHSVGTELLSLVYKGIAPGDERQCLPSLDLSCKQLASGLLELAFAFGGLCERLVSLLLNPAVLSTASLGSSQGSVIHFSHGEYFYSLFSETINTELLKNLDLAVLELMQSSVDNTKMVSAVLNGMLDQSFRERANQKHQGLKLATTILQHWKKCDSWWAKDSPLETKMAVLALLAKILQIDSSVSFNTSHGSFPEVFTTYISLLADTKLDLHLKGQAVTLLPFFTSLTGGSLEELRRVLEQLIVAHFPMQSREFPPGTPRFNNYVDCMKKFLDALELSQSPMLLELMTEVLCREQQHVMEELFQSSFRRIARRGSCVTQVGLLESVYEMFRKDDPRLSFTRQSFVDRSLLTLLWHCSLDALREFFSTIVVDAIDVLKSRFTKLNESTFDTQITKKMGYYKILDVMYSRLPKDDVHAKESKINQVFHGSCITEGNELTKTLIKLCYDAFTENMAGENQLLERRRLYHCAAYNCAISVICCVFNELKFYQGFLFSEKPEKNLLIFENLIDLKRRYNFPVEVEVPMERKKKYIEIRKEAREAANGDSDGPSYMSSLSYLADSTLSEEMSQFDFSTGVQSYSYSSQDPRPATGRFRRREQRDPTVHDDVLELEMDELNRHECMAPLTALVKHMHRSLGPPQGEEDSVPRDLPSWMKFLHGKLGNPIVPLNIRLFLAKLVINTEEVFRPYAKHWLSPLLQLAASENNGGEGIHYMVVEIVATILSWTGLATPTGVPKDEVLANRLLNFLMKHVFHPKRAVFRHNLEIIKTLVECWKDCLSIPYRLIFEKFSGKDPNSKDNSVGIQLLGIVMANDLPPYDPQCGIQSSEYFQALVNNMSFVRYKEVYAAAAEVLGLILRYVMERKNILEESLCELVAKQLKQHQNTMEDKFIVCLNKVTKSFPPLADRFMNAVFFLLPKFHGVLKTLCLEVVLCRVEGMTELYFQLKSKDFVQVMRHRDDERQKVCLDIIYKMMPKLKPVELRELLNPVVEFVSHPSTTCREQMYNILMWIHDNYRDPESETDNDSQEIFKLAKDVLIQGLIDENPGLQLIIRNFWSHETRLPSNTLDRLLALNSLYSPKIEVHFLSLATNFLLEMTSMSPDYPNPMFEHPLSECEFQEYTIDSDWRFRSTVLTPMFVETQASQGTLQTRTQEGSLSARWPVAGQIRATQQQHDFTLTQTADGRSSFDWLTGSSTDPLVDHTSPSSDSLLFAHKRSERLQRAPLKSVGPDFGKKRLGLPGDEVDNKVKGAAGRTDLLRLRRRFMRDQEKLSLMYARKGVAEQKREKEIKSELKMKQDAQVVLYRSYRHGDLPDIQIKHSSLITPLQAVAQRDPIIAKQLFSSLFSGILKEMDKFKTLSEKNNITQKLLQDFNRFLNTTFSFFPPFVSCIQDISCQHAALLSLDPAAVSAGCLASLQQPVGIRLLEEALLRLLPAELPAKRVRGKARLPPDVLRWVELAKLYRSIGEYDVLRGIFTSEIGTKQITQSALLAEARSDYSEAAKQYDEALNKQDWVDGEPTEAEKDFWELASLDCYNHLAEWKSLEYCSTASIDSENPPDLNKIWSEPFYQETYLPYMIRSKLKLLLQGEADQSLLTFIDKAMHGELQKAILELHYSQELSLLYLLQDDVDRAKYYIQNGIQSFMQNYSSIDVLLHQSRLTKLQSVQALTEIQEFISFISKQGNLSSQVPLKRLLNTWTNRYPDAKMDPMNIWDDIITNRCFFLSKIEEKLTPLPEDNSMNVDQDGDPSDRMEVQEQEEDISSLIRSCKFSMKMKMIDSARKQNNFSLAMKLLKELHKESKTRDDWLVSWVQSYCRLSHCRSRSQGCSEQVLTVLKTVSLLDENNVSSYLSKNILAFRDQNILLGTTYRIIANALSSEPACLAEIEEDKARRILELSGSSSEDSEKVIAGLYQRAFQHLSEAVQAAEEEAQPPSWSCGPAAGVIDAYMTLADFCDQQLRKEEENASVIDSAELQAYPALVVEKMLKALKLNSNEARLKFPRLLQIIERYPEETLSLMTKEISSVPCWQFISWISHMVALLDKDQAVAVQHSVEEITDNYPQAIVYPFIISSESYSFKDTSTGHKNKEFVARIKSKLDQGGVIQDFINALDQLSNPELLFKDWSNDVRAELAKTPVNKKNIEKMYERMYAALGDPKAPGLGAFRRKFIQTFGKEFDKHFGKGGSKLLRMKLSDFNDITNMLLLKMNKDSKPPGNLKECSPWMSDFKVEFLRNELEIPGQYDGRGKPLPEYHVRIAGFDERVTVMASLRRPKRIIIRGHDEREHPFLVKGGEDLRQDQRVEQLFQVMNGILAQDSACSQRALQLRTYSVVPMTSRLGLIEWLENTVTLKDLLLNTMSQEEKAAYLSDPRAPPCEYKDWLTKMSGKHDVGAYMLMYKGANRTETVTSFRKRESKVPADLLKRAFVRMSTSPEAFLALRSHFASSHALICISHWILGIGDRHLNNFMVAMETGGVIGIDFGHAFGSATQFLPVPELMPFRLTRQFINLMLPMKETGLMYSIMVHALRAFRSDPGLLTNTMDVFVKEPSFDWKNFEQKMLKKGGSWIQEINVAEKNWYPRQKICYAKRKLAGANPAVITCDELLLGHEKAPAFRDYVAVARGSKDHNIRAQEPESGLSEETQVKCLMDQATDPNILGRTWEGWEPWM

SMILES	IC50 [nM]
Cc1cc(C(C)Nc2ccccc2)c2oc(N3CCOCC3)cc(=O)c2c1 (stereo unspecified)	120

biological target: Phosphatidylinositol 4,5-bisphosphate 3-kinase catalytic subunit beta isoform (Homo sapiens, UniProt P42338); assay: Inhibition of PI3Kbeta (unknown origin) incubated for 60 mins in the presence of ATP by Kinase-Glo luminescence assay
Sequence (P42338 whole entry, canonical isoform): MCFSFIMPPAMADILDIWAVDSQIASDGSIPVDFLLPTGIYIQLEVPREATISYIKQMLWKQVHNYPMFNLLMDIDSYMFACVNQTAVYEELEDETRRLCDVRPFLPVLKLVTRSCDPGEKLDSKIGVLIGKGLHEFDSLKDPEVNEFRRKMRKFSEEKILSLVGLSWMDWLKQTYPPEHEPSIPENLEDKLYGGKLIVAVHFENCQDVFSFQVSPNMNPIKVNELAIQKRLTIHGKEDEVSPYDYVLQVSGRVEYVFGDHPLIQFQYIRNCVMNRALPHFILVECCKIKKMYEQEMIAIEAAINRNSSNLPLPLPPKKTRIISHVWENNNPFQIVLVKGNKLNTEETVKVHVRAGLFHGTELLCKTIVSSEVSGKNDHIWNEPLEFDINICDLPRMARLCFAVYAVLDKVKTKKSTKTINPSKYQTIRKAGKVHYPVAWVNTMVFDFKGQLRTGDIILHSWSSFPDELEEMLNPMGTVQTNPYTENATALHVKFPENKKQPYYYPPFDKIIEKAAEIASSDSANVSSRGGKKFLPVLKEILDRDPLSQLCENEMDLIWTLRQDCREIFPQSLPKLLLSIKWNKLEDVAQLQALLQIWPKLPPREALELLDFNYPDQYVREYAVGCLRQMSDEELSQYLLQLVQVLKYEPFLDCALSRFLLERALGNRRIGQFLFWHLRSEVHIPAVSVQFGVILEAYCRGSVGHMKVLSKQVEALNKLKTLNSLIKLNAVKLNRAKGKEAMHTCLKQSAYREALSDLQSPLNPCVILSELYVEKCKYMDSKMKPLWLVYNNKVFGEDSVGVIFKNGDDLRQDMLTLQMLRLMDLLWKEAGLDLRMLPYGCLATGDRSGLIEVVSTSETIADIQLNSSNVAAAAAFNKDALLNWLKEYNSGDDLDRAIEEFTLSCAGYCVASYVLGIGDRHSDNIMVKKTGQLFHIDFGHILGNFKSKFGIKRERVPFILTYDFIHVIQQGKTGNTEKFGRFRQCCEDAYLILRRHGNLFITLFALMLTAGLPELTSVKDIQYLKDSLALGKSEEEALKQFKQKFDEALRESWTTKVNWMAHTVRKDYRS

SMILES	IC50 [nM]
Cc1cc(C(C)Oc2ccccc2C)c2oc(N3CCOCC3)nc(=O)c2c1 (stereo unspecified)	227
Cc1cccc(OC(C)c2cc(C)cc3c(=O)nc(N4CCOCC4)oc23)c1 (stereo unspecified)	2440
Cc1cc(C(C)Nc2cccc(Cl)c2)c2oc(N3CCOCC3)nc(=O)c2c1 (stereo unspecified)	72.7
Cc1cc(C(C)Nc2ccc(F)cc2F)c2oc(N3CCOCC3)nc(=O)c2c1 (stereo unspecified)	281
Cc1cc(C(C)Nc2ccccc2)c2oc(N3CCOCC3)nc(=O)c2c1 (stereo unspecified)	240
Cc1cc(C(C)Nc2cc(F)cc(F)c2)c2oc(N3CCOCC3)nc(=O)c2c1 (stereo unspecified)	152
Cc1cc(C(C)Nc2cccc(Cl)c2F)c2oc(N3CCOCC3)nc(=O)c2c1 (stereo unspecified)	272
Cc1cc(C(C)Oc2cc(C)c(Cl)c(C)c2)c2oc(N3CCOCC3)nc(=O)c2c1 (stereo unspecified)	> 20000
COc1ccc(OC(C)c2cc(C)cc3c(=O)nc(N4CCOCC4)oc23)cc1 (stereo unspecified)	> 20000
Cc1cc(C(C)Oc2ccccc2)c2oc(N3CCOCC3)nc(=O)c2c1 (stereo unspecified)	1430
Cc1cc(C(C)Nc2cc(F)ccc2F)c2oc(N3CCOCC3)nc(=O)c2c1 (stereo unspecified)	70
Cc1cc(C(C)Nc2c(F)cccc2F)c2oc(N3CCOCC3)nc(=O)c2c1 (stereo unspecified)	1220
Cc1cc(C(C)Nc2ccccc2Cl)c2oc(N3CCOCC3)nc(=O)c2c1 (stereo unspecified)	136
Cc1cc(C(C)Nc2cccc3ccccc23)c2oc(N3CCOCC3)nc(=O)c2c1 (stereo unspecified)	49.2
COc1cccc(OC(C)c2cc(C)cc3c(=O)nc(N4CCOCC4)oc23)c1 (stereo unspecified)	1880
Cc1ccc(OC(C)c2cc(C)cc3c(=O)nc(N4CCOCC4)oc23)cc1 (stereo unspecified)	> 20000
Cc1cc(C(C)Oc2ccc(Cl)c(C)c2)c2oc(N3CCOCC3)nc(=O)c2c1 (stereo unspecified)	> 20000
Cc1cc(C(C)Nc2ccc(Br)cc2)c2oc(N3CCOCC3)nc(=O)c2c1 (stereo unspecified)	12600
Cc1cc(C(C)Nc2ccc(F)c(F)c2)c2oc(N3CCOCC3)nc(=O)c2c1 (stereo unspecified)	62.7
